Test: Noncompartmental pharmacokinetic parameters (Cmax, Tmax, AUC, Racc) in QD and BID cohorts of Form B
Format: in vivo, human
Details: for Racc (Max) / Racc (Mean) / Racc (Median) / Racc (Min): AUCDay 29/AUCDay 1
Procedure: Analysis of plasma concentration versus time data for calculation of standard pharmacokinetic (PK) parameters following oral administration was conducted using Phoenix WinNonlin version 6.3 using actual blood sampling times.
The following pharmacokinetic parameters were calculated from the concentration versus time data obtained in Example 1 for each of the above QD (200 mg, 300 mg, 400 mg, 500 mg, or 650 mg dosed) and BID (100 mg, 150 mg, or 200 mg doses) Form B of Compound II dosage cohorts: • Cmax—the observed peak plasma concentration determined from the plasma concentration versus time data obtained on Day 1 and Day 29, as applicable; • Tmax—the time to reach the observed peak plasma concentration from the plasma concentration versus time data obtained on Day 1 and Day 29, as applicable; • AUC—area under the plasma concentration versus time curve during a dosing interval on Day 1 and Day 29, as applicable; and • Racc—accumulation ratio calculated as AUCDay 29/AUCDay 1.

[1] = Cohort 1, 200 mg QD of Form B, Day 1
[2] = Cohort 2, 300 mg QD of Form B, Day 1
[3] = Cohort 3, 400 mg QD of Form B, Day 1
[4] = Cohort 4, 500 mg QD of Form B, Day 1
[5] = Cohort 5, 650 mg QD of Form B, Day 1
[6] = Cohort 6, 100 mg BID of Form B, Day 1
[7] = Compound I, 100 mg BID of Form B, Cohort 6
[8] = Compound I, 100 mg BID of Form B, Cohort 6, Day 29
[9] = Compound I, 150 mg BID of Form B, Cohort 7
[10] = Compound I, 150 mg BID of Form B, Cohort 7, Day 1
[11] = Compound I, 150 mg BID of Form B, Cohort 7, Day 29
[12] = Compound I, 200 mg BID of Form B, Cohort 7, Day 1
[13] = Compound I, 200 mg BID of Form B, Cohort 8
[14] = Compound I, 200 mg BID of Form B, Cohort 8, Day 29
[15] = Compound I, 200 mg QD of Form B, Cohort 1
[16] = Compound I, 200 mg QD of Form B, Cohort 1, Day 29
[17] = Compound I, 300 mg QD of Form B, Cohort 2
[18] = Compound I, 300 mg QD of Form B, Cohort 2, Day 29
[19] = Compound I, 400 mg QD of Form B, Cohort 3
[20] = Compound I, 400 mg QD of Form B, Cohort 3, Day 29
[21] = Compound I, 500 mg QD of Form B, Cohort 4
[22] = Compound I, 500 mg QD of Form B, Cohort 4, Day 29
[23] = Compound I, 650 mg QD of Form B, Cohort 5
[24] = Compound I, 650 mg QD of Form B, Cohort 5, Day 29

Which results are given for `CC(C)N1CCN(c2ccc(Nc3ncc4cc5n(c4n3)C3(CCCCC3)CNC5=O)nc2)CC1` [Compound I, 2′-((5-(4-isopropylpiperazin-1-yl)pyridin-2-yl)amino)-7′,8′-dihydro-6′H-spiro[cyclohexane-1,9′-pyrazino[1′,2′:1,5]pyrrolo[2,3-d]pyrimidin]-6′-one]?
AUClast (Max) [1]: 355 ng·h/mL; AUClast (Min) [1]: 98.9 ng·h/mL; Cmax (Max) [1]: 40.0 ng/mL; Cmax (Min) [1]: 8.26 ng/mL; AUClast (Max) [2]: 580 ng·h/mL; AUClast (Min) [2]: 106 ng·h/mL; AUClast (Max) [3]: 248 ng·h/mL; AUClast (Min) [3]: 177 ng·h/mL; Cmax (Max) [3]: 24.4 ng/mL; Cmax (Min) [3]: 14.4 ng/mL; AUClast (Max) [4]: 684 ng·h/mL; AUClast (Min) [4]: 403 ng·h/mL; Cmax (Max) [4]: 68.7 ng/mL; Cmax (Min) [4]: 27.8 ng/mL; AUClast (Max) [5]: 1040 ng·h/mL; AUClast (Min) [5]: 482 ng·h/mL; Cmax (Max) [5]: 80.7 ng/mL; Cmax (Min) [5]: 38.2 ng/mL; Tmax (Max) [5]: 10.0 h; AUClast (Max) [6]: 92.6 ng·h/mL; AUClast (Min) [6]: 42.8 ng·h/mL; Cmax (Max) [6]: 14.7 ng/mL; Cmax (Min) [6]: 7.25 ng/mL; Racc (Max) [7]: 2.96 (h * ng/mL)/(h * ng/mL); Racc (Mean) [7]: 1.90 (h * ng/mL)/(h * ng/mL); Racc (Median) [7]: 2.06 (h * ng/mL)/(h * ng/mL); Racc (Min) [7]: 0.931 (h * ng/mL)/(h * ng/mL); AUClast (Max) [8]: 183 ng·h/mL; AUClast (Min) [8]: 41.1 ng·h/mL; Cmax (Max) [8]: 20.5 ng/mL; Cmax (Min) [8]: 5.14 ng/mL; Tmax (Max) [8]: 12.0 h; Tmax (Min) [8]: 60 min; Racc (Max) [9]: 7.71 (h * ng/mL)/(h * ng/mL); Racc (Mean) [9]: 3.88 (h * ng/mL)/(h * ng/mL); Racc (Median) [9]: 2.28 (h * ng/mL)/(h * ng/mL); Racc (Min) [9]: 1.66 (h * ng/mL)/(h * ng/mL); AUClast (Max) [10]: 146 ng·h/mL; AUClast (Min) [10]: 103 ng·h/mL; Cmax (Max) [10]: 28.3 ng/mL; Cmax (Min) [10]: 12.2 ng/mL; AUClast (Max) [11]: 795 ng·h/mL; AUClast (Min) [11]: 235 ng·h/mL; Cmax (Max) [11]: 83.2 ng/mL; AUClast (Max) [12]: 185 ng·h/mL; AUClast (Min) [12]: 37.9 ng·h/mL; Cmax (Max) [12]: 29.0 ng/mL; Cmax (Min) [12]: 5.28 ng/mL; Racc (Max) [13]: 2.15 (h * ng/mL)/(h * ng/mL); Racc (Mean) [13]: 2.06 (h * ng/mL)/(h * ng/mL); Racc (Median) [13]: 2.11 (h * ng/mL)/(h * ng/mL); Racc (Min) [13]: 1.91 (h * ng/mL)/(h * ng/mL); AUClast (Max) [14]: 306 ng·h/mL; AUClast (Min) [14]: 79.8 ng·h/mL; Cmax (Max) [14]: 40.8 ng/mL; Cmax (Min) [14]: 7.69 ng/mL; Tmax (Max) [14]: 12.0 h; Racc (Max) [15]: 1.72 (h * ng/mL)/(h * ng/mL); Racc (Mean) [15]: 1.17 (h * ng/mL)/(h * ng/mL); Racc (Median) [15]: 1.15 (h * ng/mL)/(h * ng/mL); Racc (Min) [15]: 0.740 (h * ng/mL)/(h * ng/mL); AUClast (Max) [16]: 407 ng·h/mL; AUClast (Min) [16]: 73.2 ng·h/mL; Cmax (Max) [16]: 32.0 ng/mL; Cmax (Min) [16]: 5.90 ng/mL; Racc (Max) [17]: 3.62 (h * ng/mL)/(h * ng/mL); Racc (Mean) [17]: 2.03 (h * ng/mL)/(h * ng/mL); Racc (Median) [17]: 1.42 (h * ng/mL)/(h * ng/mL); Racc (Min) [17]: 1.04 (h * ng/mL)/(h * ng/mL); AUClast (Max) [18]: 789 ng·h/mL; AUClast (Min) [18]: 384 ng·h/mL; Cmax (Max) [18]: 73.0 ng/mL; Cmax (Min) [18]: 27.5 ng/mL; Tmax (Max) [18]: 10.0 h; Racc (Max) [19]: 1.90 (h * ng/mL)/(h * ng/mL); Racc (Mean) [19]: 1.35 (h * ng/mL)/(h * ng/mL); Racc (Median) [19]: 1.50 (h * ng/mL)/(h * ng/mL); Racc (Min) [19]: 0.653 (h * ng/mL)/(h * ng/mL); AUClast (Max) [20]: 371 ng·h/mL; AUClast (Min) [20]: 115 ng·h/mL; Cmax (Max) [20]: 26.7 ng/mL; Cmax (Min) [20]: 6.94 ng/mL; Racc (Max) [21]: 1.47 (h * ng/mL)/(h * ng/mL); Racc (Mean) [21]: 1.12 (h * ng/mL)/(h * ng/mL); Racc (Median) [21]: 0.965 (h * ng/mL)/(h * ng/mL); Racc (Min) [21]: 0.932 (h * ng/mL)/(h * ng/mL); AUClast (Max) [22]: 660 ng·h/mL; AUClast (Min) [22]: 570 ng·h/mL; Cmax (Max) [22]: 48.2 ng/mL; Cmax (Min) [22]: 36.4 ng/mL; Racc (Max) [23]: 1.47 (h * ng/mL)/(h * ng/mL); Racc (Mean) [23]: 1.12 (h * ng/mL)/(h * ng/mL); Racc (Median) [23]: 0.965 (h * ng/mL)/(h * ng/mL); Racc (Min) [23]: 0.932 (h * ng/mL)/(h * ng/mL); AUClast (Max) [24]: 660 ng·h/mL; AUClast (Min) [24]: 570 ng·h/mL; Cmax (Max) [24]: 48.2 ng/mL; Cmax (Min) [24]: 36.4 ng/mL
